# Experimental data published in US6197798A, “Amino-benzocycloalkane derivatives” (Novartis AG, priority 1999, dated 2001).
# Experiments:
# [1] = system: apolipoprotein B (Apo B) secretion, Hep G2 cells; experiment: inhibition of the cellular secretion of Apo B (Hep G2 cells, ELISA); format: cell-based; conditions: Homo sapiens, HepG2, 24 h, secreted Apo B by ELISA
# Experimental: The inhibition of the cellular secretion of Apo B is determined as follows:
# Hep G2 cells are maintained in T-75 culture flasks (Corning) in Dulbecco's modified Eagles Medium (DMEM; Gibco-BRL) supplemented with 10% fetal calf serum Gibco-BRL) in a humidified atmosphere containing 5% carbon dioxide until they are confluent. For testing compounds, Hep G2 cells from the T-75 maintenance flasks are harvested and seeded in 96-well culture plates (Corning) and are grown for 72 hours (approximately 80% confluent). Test compound is dissolved at 1 mg/ml (w/v;1-5 mM) in dimethyl sulfoxide DMSO; Sigma) as stock solution. Prior to use, the stock solution of compound is diluted to 133 μM with DMSO and diluted further with growth medium (DMEM containing 10% fetal calf serum) to obtain 1 μM of compound in 100 μL of growth medium. 100 μL of growth medium containing the test compound is added to separate wells of a 96-well culture plate containing Hep G2 cells. For testing dose response of compound, a stock solution of test compound in DMSO is made at 665 μM and various dilutions from this solution are made in growth medium to obtain range of concentration of compound from 0.01 μM to 5 μM in 100 μL of growth medium. 100 μL of the growth medium containing different concentrations of test compound is added to separate wells containing Hep G2 cells. Twenty-four hours later, growth medium is collected and assayed by specific ELISA for apolipoprotein B (Apo B). At the same time Hep G2 cells from wells are assayed for protein (BioRad; cat. # 500-0006) and/or cell viability (Promega; CellTiter 96 Aqueous, cat. # G3581). Inhibitors are identified as compounds that decrease Apo B secretion into the medium without decreasing the total cellular protein and/or cell viability. […] Absorbance of each well is read at 405 nm using a Beckman Biomek workstation. […]
# [2] = target: T1, rat MTP (microsomal triglyceride transfer protein) (Rattus norvegicus, UniProt D4A1W8); experiment: inhibition of MTP (triglyceride transfer from donor vesicles to acceptor vesicles); format: biochemical; conditions: soluble rat MTP, 37° C., 45 min, radiolabeled triglyceride transfer
# T1 construct: homogenate (120 g/210 mL) of rat liver; from tissue; host or cells: rat liver microsomes, deoxycholate-released soluble protein
# T1 sequence (D4A1W8 22-896): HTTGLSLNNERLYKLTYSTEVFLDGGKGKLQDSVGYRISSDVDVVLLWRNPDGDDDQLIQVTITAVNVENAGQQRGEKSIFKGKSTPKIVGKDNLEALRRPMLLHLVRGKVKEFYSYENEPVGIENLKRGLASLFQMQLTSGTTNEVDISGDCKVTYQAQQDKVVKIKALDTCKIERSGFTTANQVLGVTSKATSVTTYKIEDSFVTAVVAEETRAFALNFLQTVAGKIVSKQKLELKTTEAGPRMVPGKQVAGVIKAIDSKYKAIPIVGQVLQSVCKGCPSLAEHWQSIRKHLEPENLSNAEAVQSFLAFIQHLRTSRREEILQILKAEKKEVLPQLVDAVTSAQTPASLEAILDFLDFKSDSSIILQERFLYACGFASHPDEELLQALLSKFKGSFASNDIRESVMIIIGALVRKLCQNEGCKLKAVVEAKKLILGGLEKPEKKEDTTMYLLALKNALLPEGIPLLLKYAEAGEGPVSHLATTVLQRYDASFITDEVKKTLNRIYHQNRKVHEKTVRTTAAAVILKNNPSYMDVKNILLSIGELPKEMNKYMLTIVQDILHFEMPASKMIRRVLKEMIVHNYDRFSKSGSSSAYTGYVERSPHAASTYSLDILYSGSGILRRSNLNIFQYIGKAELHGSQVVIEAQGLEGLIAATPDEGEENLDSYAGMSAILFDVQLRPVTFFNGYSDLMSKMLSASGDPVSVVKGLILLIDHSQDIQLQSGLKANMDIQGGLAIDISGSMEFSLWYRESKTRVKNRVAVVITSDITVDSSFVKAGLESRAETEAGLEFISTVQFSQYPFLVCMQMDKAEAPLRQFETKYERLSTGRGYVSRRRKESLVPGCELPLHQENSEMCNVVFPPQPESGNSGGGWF
# T1 sequence (P04785 20-509 partner): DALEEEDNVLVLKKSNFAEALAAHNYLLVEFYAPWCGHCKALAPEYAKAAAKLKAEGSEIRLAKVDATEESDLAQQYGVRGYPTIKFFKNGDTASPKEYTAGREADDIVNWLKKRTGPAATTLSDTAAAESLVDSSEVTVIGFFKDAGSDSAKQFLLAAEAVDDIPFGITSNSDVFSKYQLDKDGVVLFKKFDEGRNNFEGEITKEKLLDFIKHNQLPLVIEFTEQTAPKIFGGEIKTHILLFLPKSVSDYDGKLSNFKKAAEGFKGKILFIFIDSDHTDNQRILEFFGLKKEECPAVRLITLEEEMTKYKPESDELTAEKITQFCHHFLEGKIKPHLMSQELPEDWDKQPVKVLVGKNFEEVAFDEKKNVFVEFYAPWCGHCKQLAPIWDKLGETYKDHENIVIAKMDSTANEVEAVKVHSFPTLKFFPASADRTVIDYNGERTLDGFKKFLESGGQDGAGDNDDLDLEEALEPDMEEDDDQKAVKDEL
# Experimental: The inhibition of MTP is measured as follows:
# Inhibition of the lipid transfer activity of MTP can be quantitated by measuring the inhibition of transfer of radiolabeled triglyceride from donor vesicles to acceptor vesicles in presence of soluble rat MTP. The procedure for preparing MTP is based on the method of Wetterau and Zilversmit (Biochim. Biophys. Acta (1986) 875:610). Briefly rats are decapitated under ether anesthesia. The liver is placed in ice cold sucrose buffer (contains 0.25M sucrose, 50 mM Tris Hcl, 1 mM EDTA, 0.02% sodium azide, pH 7.4) rinsed several times with the sucrose buffer.
# All subsequent steps are performed on ice. A 57% homogenate (120 g/210 mL) of rat liver in 0.25 M sucrose buffer is prepared by using a Potter-Elvehjem homogenizer. The homogenate is then centrifuged at 4° C. for 30 min at 13,000×g to remove large cellular organells. The supernatant is then centrifuged for 90 min at 105,000×g to pellet the microsomes. The pellet is resuspended in 10 mM Tris-HCl buffer pH 8.6. and centrifuged for 90 min at 105,000×g. The washed pellet is then resuspended in 1 mM Tris buffer (pH 8.6) and centrifuged for 2 hrs. […] The protein content is measured using the Sigma Lowry micro total protein method and reagents (Sigma Cat. # 690A). […]
# MTP activity is measured using a MTP transfer assay. […]
# [3] = in vivo cholesterol lowering effect; conditions: 10 mg/kg p.o.
# From the text: The in vivo serum cholesterol lowering effect of the compounds of the invention can be determined by measuring their effect on cholesterol levels in mice, rats or dogs according to methodology well known in the art, e.g., in normolipidemic rats.
# [4] = in vivo triglyceride lowering effect; conditions: 10 mg/kg p.o.
# From the text: The in vivo serum triglyceride lowering effect of the compounds of the invention can be determined by measuring their effect on triglyceride levels in mice, rats or dogs according to methodology well known in the art, e.g., in a model of pre-established hypertriglyceridemia in fructose fed rats or in normolipidemic rats.
IC50 [1],IC50 [2],SMILES,lowers plasma cholesterol [3],lowers plasma triglycerides [4]
~1.8 nM,~60 nM,Cc1cccc(C(=O)Nc2ccc3c(c2)C[C@@H](NS(C)(=O)=O)C3)c1-c1ccc(C(F)(F)F)cc1 [Example 13b],–,–
~0.7 nM,~70 nM,"COC(=O)N[C@@H]1Cc2ccc(NC(=O)c3cccc(C)c3-c3ccc(C(F)(F)F)cc3)cc2C1 [13(i), (R)-6-methyl-4'-trifluoromethylbiphenyl-2-carboxylic acid (2-methoxycarbonylaminoindan-5-yl)-amide]",lowers both plasma triglycerides and cholesterol,lowers both plasma triglycerides and cholesterol
~3 nM,–,CS(=O)(=O)N[C@@H]1Cc2ccc(NC(=O)c3cc(F)ccc3-c3ccc(C(F)(F)F)cc3)cc2C1 [13(al)],–,–
